Assay results published in patent US12459951B2, “Compounds that interact with RAS superfamily proteins for treatment of cancers, inflammatory diseases, rasopathies, and fibrotic disease” (SHY Therapeutics, LLC, priority 2022, dated 2025).
Where two headings read alike, the source gives them in different places.

Columns and labels:
Akt phosphorylation = assay: Akt Phosphorylation Assay (western blot), Panc-1; assay type: cell-based, human; conditions: at 10 μM, * = activation
Method in brief: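 Panc-1 (KRas G12D) cells were treated with compound at 10 μM final (0.3% DMSO) for 6 h at 37 °C, or with serial dilutions for IC50. Cells were either serum-starved overnight in 0.5% FBS and then stimulated with 1.5 ng/ml EGF for 15 min, or kept in 10% FBS without stimulation. Akt Ser473 phosphorylation in lysates was read by western blot.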

[1] = system: MiaPaca-2 (expressing KRAS G12C mutant); assay: Proliferation Assay (Cell Viability Assay); assay type: cell-based; conditions: Homo sapiens, MIA PaCa-2
Method in brief: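 MiaPaca-2 cells (KRAS G12C) were grown in DMEM-high glucose with 10% FBS, seeded at 2000–5000 cells/well and cultured overnight. Compounds were added at 10 μM final, or as serial dilutions for IC50, in 0.3% DMSO/10% FBS for 2–4 days at 37 °C, 5% CO2. Viability was measured with CellTiter 96 Aqueous One and % inhibition calculated.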

[2] = read-out: Proliferation in MiaPaca-2: IC50
[3] = Proliferation assay, MiaPaca-2, read-out: MiaPaca-2 IC50 (nM) Pancreatic

Row | Structure (SMILES) | IC50 [1, 2] [nM] | IC50 [1, 3] [nM] | % inh of Akt phosphorylation in Panc-1 (Akt phosphorylation)
1 | COc1ccnc(Nc2nc(-c3nccn3C)nn3cc(-c4ccn(C)n4)c(C)c23)c1 [Compound 102, N-(4-Methoxypyridin-2-yl)-5-methyl-2-(1-methyl-1H-imidazol-2-yl)-6-(1-methyl-1H-pyrazol-3-yl)pyrrolo[2,1-f][1,2,4]triazin-4-amine] | < 150 | 1 to 10 | D* (85-100% activation)
2 | Cc1c(-c2ccn(C)n2)cn2nc(-c3nccn3C)nc(Nc3ccn(C4CC4)n3)c12 [Compound 111, N-(1-Cyclopropyl-1H-pyrazol-3-yl)-5-methyl-2-(1-methyl-1H-imidazol-2-yl)-6-(1-methyl-1H-pyrazol-3-yl)pyrrolo[2,1-f][1,2,4]triazin-4-amine] | 150 to 500 |  | D* (85-100% activation)
3 | Cc1c(-c2ccn(C)n2)cn2nc(-c3nccn3C)nc(Nc3cc4n(n3)CCC4)c12 [Compound 100, N-(5,6-Dihydro-4H-pyrrolo[1,2-b]pyrazol-2-yl)-5-methyl-2-(1-methyl-1H-imidazol-2-yl)-6-(1-methyl-1H-pyrazol-3-yl)pyrrolo[2,1-f][1,2,4]triazin-4-amine] | < 150 | 1 to 10 | D* (85-100% activation)
4 | Cc1c(-c2ccn(C)n2)cn2nc(-c3nccn3C)nc(Nc3nccc(OCCN(C)C)n3)c12 [Compound 105, N-(4-(2-(Dimethylamino)ethoxy)pyrimidin-2-yl)-5-methyl-2-(1-methyl-1H-imidazol-2-yl)-6-(1-methyl-1H-pyrazol-3-yl)pyrrolo[2,1-f][1,2,4]triazin-4-amine] | 510 to 1000 |  | C* (46-84% activation)
5 | Cc1c(-c2ccn(C(C)C)n2)cn2nc(-c3nccn3C)nc(Nc3nccc(OCCN(C)C)n3)c12 [Compound 96, N-(4-(2-(Dimethylamino)ethoxy)pyrimidin-2-yl)-6-(1-isopropyl-1H-pyrazol-3-yl)-5-methyl-2-(1-methyl-1H-imidazol-2-yl)pyrrolo[2,1-f][1,2,4]triazin-4-amine] | 150 to 500 |  | D* (85-100% activation)

The next lines start with results.

Row | IC50 [1, 2] [nM] | IC50 [1, 3] [nM] | Structure (SMILES) | % inh of Akt phosphorylation in Panc-1 (Akt phosphorylation)
6 | < 150 |  | COc1ccnc(Nc2nc(-c3nccn3C)nn3cc(-c4ccn(C5CC5)n4)c(C)c23)c1 [Compound 137, 6-(1-Cyclopropyl-1H-pyrazol-3-yl)-N-(4-methoxypyridin-2-yl)-5-methyl-2-(1-methyl-1H-imidazol-2-yl)pyrrolo[2,1-f][1,2,4]triazin-4-amine] | D* (85-100% activation)
7 | < 150 |  | COc1cnc(Nc2nc(-c3nccn3C)nn3cc(-c4ccn(C)n4)c(C)c23)nc1.Cl [Compound 117, N-(5-Methoxypyrimidin-2-yl)-5-methyl-2-(1-methyl-1H-imidazol-2-yl)-6-(1-methyl-1H-pyrazol-3-yl)pyrrolo[2,1-f][1,2,4]triazin-4-amine hydrochloride salt] | B (26-49% inhibition)
8 | < 150 |  | Cc1c(-c2ccn(C3CC3)n2)cn2nc(-c3nccn3C)nc(Nc3cc(OC(F)F)ccn3)c12 [Compound 139, 6-(1-Cyclopropyl-1H-pyrazol-3-yl)-N-(4-(difluoromethoxy)pyridin-2-yl)-5-methyl-2-(1-methyl-1H-imidazol-2-yl)pyrrolo[2,1-f][1,2,4]triazin-4-amine] | D* (85-100% activation)
9 | < 150 |  | Cc1c(-c2ccn(C)n2)cn2nc(-c3nccn3C)nc(Nc3cnccn3)c12 [Compound 120, 5-Methyl-2-(1-methyl-1H-imidazol-2-yl)-6-(1-methyl-1H-pyrazol-3-yl)-N-(pyrazin-2-yl)pyrrolo[2,1-f][1,2,4]triazin-4-amine] | B* (26-49% activation)
10 | < 150 | 1 to 10 | Cc1c(-c2ccn(C)n2)cn2nc(-c3nccn3C)nc(Nc3cc4n(n3)CCO4)c12 [Compound 124, N-(5-Methyl-2-(1-methyl-1H-imidazol-2-yl)-6-(1-methyl-1H-pyrazol-3-yl)pyrrolo[2,1-f][1,2,4]triazin-4-yl)-2,3-dihydropyrazolo[5,1-b]oxazol-6-amine] | C* (46-84% activation)
